Laboratory results: patent US20170050957A1, “4-AMINO-6-(HETEROCYCLIC)PICOLINATES AND 6-AMINO-2-(HETEROCYCLIC)PYRIMIDINE-4-CARBOXYLATES AND THEIR USE AS HERBICIDES” (Dow AgroSciences LLC, priority 2013, published 2017)
Like-named read-outs stand apart in the source and are kept apart here.

Experiments:
[1] = system: Key Grass and Sedge Weeds as well as Grass Crops; assay: Post-emergent Test II herbicidal activity (Table 16); type: in vivo; details: post-emergence, 336 h, 14 d; for pest or weed control at 35 g/ha: 35 g ai/ha; for pest or weed control at 70 g/ha: 70 g ai/ha; for pest or weed control at 140 g/ha: 140 g ai/ha
Method in brief: (§1)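 Plants grown in greenhouse (~15 h photoperiod, 23-29 °C day, 22-28 °C night) to first or second true leaf stage, then sprayed post-emergence at 187 L/ha with a high rate and 1/2×, 1/4×, 1/8× and 1/16× dilutions. Injury scored visually after 14 d, 0-100% versus untreated plants.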

[2] = system: Key Broadleaf Weed and Crop Species; assay: Post-emergent Test II herbicidal activity (Table 15); type: in vivo; details: post-emergence, 336 h, 14 d; for pest or weed control at 35 g/ha: 35 g ai/ha; for pest or weed control at 70 g/ha: 70 g ai/ha; for pest or weed control at 140 g/ha: 140 g ai/ha
Method in brief: as §1

[3] = Cyperus esculentus, yellow nutsedge (Cyperus esculentus), read-out: Visual Growth Reduction (%) 14 Days After Application, CYPES
[4] = Echinochloa crus-galli, barnyardgrass (Echinochloa crus-galli), read-out: Visual Growth Reduction (%) 14 Days After Application, ECHCG
[5] = Oryza sativa, rice (Oryza sativa), read-out: Visual Growth Reduction (%) 14 Days After Application, ORYSA
[6] = Setaria faberi, giant foxtail (Setaria faberi), read-out: Visual Growth Reduction (%) 14 Days After Application, SETFA
[7] = Triticum aestivum, wheat, spring (Triticum aestivum), read-out: Visual Growth Reduction (%) 14 Days After Application, TRZAS
[8] = Zea mays, maize, corn (Zea mays), read-out: Visual Growth Reduction (%) 14 Days After Application, ZEAMX
[9] = Abutilon theophrasti, velvetleaf (Abutilon theophrasti), read-out: Visual Growth Reduction (%) 14 Days After Application, ABUTH
[10] = Amaranthus retroflexus, redroot pigweed (Amaranthus retroflexus), read-out: Visual Growth Reduction (%) 14 Days After Application, AMARE
[11] = Brassica napus, oilseed rape, canola (Brassica napus), read-out: Visual Growth Reduction (%) 14 Days After Application, BRSNN
[12] = Chenopodium album, lambsquarters (Chenopodium album), read-out: Visual Growth Reduction (%) 14 Days After Application, CHEAL
[13] = Euphorbia heterophylla, wild poinsettia (Euphorbia heterophylla), read-out: Visual Growth Reduction (%) 14 Days After Application, EPHHL
[14] = Helianthus annuus, sunflower (Helianthus annuus), read-out: Visual Growth Reduction (%) 14 Days After Application, HELAN

With `COC(=O)c1nc(-c2ccc(Cl)c3[nH]ccc23)nc(N)c1OC` [Compound 1.45] as the compound, how does the pest or weed control at 35 g/ha [1, 3] read?
Its pest or weed control at 35 g/ha is 0 to 29%.

What about the pest or weed control at 70 g/ha [1, 3] of the same compound?
The pest or weed control at 70 g/ha was 0 to 29%.

And the pest or weed control at 140 g/ha [1, 3]?
Its pest or weed control at 140 g/ha is 0 to 29%.

And the pest or weed control at 35 g/ha [1, 4]?
The pest or weed control at 35 g/ha was 0 to 29%.

And the pest or weed control at 70 g/ha [1, 4]?
Its pest or weed control at 70 g/ha is 0 to 29%.

And the pest or weed control at 140 g/ha [1, 4]?
Its pest or weed control at 140 g/ha is 0 to 29%.

And the pest or weed control at 35 g/ha [1, 5]?
The pest or weed control at 35 g/ha was 0 to 29%.

What about the pest or weed control at 70 g/ha [1, 5] of the same compound?
The pest or weed control at 70 g/ha was 0 to 29%.

And the pest or weed control at 140 g/ha [1, 5]?
The pest or weed control at 140 g/ha was 0 to 29%.

What about the pest or weed control at 35 g/ha [1, 6] of the same compound?
Its pest or weed control at 35 g/ha is 0 to 29%.

And the pest or weed control at 70 g/ha [1, 6]?
Its pest or weed control at 70 g/ha is 0 to 29%.

And the pest or weed control at 140 g/ha [1, 6]?
Its pest or weed control at 140 g/ha is 0 to 29%.

And the pest or weed control at 35 g/ha [1, 7]?
Its pest or weed control at 35 g/ha is 0 to 29%.

And the pest or weed control at 70 g/ha [1, 7]?
Its pest or weed control at 70 g/ha is 0 to 29%.

What about the pest or weed control at 140 g/ha [1, 7] of the same compound?
The pest or weed control at 140 g/ha was 0 to 29%.

What about the pest or weed control at 35 g/ha [1, 8] of the same compound?
The pest or weed control at 35 g/ha was 0 to 29%.

And the pest or weed control at 70 g/ha [1, 8]?
Its pest or weed control at 70 g/ha is 0 to 29%.

And the pest or weed control at 140 g/ha [1, 8]?
The pest or weed control at 140 g/ha was 0 to 29%.

What about the pest or weed control at 35 g/ha [2, 9] of the same compound?
Its pest or weed control at 35 g/ha is 0 to 29%.

What about the pest or weed control at 70 g/ha [2, 9] of the same compound?
Its pest or weed control at 70 g/ha is 0 to 29%.

What about the pest or weed control at 140 g/ha [2, 9] of the same compound?
The pest or weed control at 140 g/ha was 0 to 29%.

And the pest or weed control at 35 g/ha [2, 10]?
Its pest or weed control at 35 g/ha is 0 to 29%.

And the pest or weed control at 70 g/ha [2, 10]?
The pest or weed control at 70 g/ha was 0 to 29%.

And the pest or weed control at 140 g/ha [2, 10]?
The pest or weed control at 140 g/ha was 45 to 59%.

And the pest or weed control at 35 g/ha [2, 11]?
The pest or weed control at 35 g/ha was 0 to 29%.

And the pest or weed control at 70 g/ha [2, 11]?
Its pest or weed control at 70 g/ha is 0 to 29%.

And the pest or weed control at 140 g/ha [2, 11]?
Its pest or weed control at 140 g/ha is 0 to 29%.

What about the pest or weed control at 35 g/ha [2, 12] of the same compound?
The pest or weed control at 35 g/ha was 0 to 29%.

What about the pest or weed control at 70 g/ha [2, 12] of the same compound?
The pest or weed control at 70 g/ha was 0 to 29%.

And the pest or weed control at 140 g/ha [2, 12]?
The pest or weed control at 140 g/ha was 0 to 29%.

What about the pest or weed control at 35 g/ha [2, 13] of the same compound?
Its pest or weed control at 35 g/ha is 0 to 29%.

And the pest or weed control at 70 g/ha [2, 13]?
Its pest or weed control at 70 g/ha is 0 to 29%.

What about the pest or weed control at 140 g/ha [2, 13] of the same compound?
The pest or weed control at 140 g/ha was 0 to 29%.

And the pest or weed control at 35 g/ha [2, 14]?
The pest or weed control at 35 g/ha was 0 to 29%.

What about the pest or weed control at 70 g/ha [2, 14] of the same compound?
The pest or weed control at 70 g/ha was 0 to 29%.

And the pest or weed control at 140 g/ha [2, 14]?
Its pest or weed control at 140 g/ha is 30 to 44%.

What about the melting point of the same compound?
Its melting point is 226 °C.
